Data: ChEMBL document CHEMBL5724914, “Linking interpersonal differences in gut microbiota composition and drug biotransformation activity” (2024)

How the values were obtained:
[1] = (§1) The drug is tested on Z-029 corresponding to rat gut metagenome with ENA study accession number: PRJEB37062 and ENA sample accession number: ERS12561828 for biotransformation under anaerobic condition. The drug concentrations were measured over 9 timepoints collected between 0 and 24 hours of incubation by liquid-chromatography-coupled mass spectrometry (LC–MS); conditions: 2 µM
[2] = as §1, with “on Z-024” for “on Z-029”, “to pig” for “to rat”, “number: ERS12561823” for “number: ERS12561828”; conditions: 2 µM
[3] = as §1, with “Z-023” for “Z-029”, “to” for “to rat gut”, “ERS12561822” for “ERS12561828”; conditions: 2 µM
[4] = as §1, with “Z-012” for “Z-029”, “to” for “to rat gut”, “ERS12561812” for “ERS12561828”; conditions: 2 µM
[5] = as §1, with “Z-008” for “Z-029”, “to” for “to rat gut”, “ERS12561808” for “ERS12561828”; conditions: 2 µM
[6] = as §1, with “Z-007” for “Z-029”, “ERS12561807” for “ERS12561828”; conditions: 2 µM
[7] = as §1, with “on Z-003” for “on Z-029”, “to pig” for “to rat”, “number: ERS12561803” for “number: ERS12561828”; conditions: 2 µM
[8] = as §1, with “on WLS-350” for “on Z-029”, “to human” for “to rat”, “number: ERS12561789” for “number: ERS12561828”; conditions: 2 µM
[9] = as §1, with “on WLS-086” for “on Z-029”, “to human” for “to rat”, “number: ERS12561752” for “number: ERS12561828”; conditions: 2 µM
[10] = as §1, with “on WLS-069” for “on Z-029”, “to human” for “to rat”, “number: ERS12561748” for “number: ERS12561828”; conditions: 2 µM
[11] = human gut metagenome, 24 h, 2 µM
[12] = human gut metagenome, 24 h, 2 µM; remark: listed apart in the source
[13] = human gut metagenome, 24 h, 2 µM; remark: listed apart in the source
[14] = human gut metagenome, 24 h, 2 µM; remark: listed apart in the source
[15] = human gut metagenome, 24 h, 2 µM; remark: listed apart in the source
[16] = human gut metagenome, 24 h, 2 µM; remark: listed apart in the source
[17] = human gut metagenome, 24 h, 2 µM; remark: listed apart in the source
[18] = human gut metagenome, 24 h, 2 µM; remark: listed apart in the source
[19] = human gut metagenome, 24 h, 2 µM; remark: listed apart in the source
[20] = human gut metagenome, 24 h, 2 µM; remark: listed apart in the source
Further: call rule not given here.

| SMILES | Bacterial Biotransformation [1] | Bacterial Biotransformation [2] | Bacterial Biotransformation [3] | Bacterial Biotransformation [4] | Bacterial Biotransformation [5] | Bacterial Biotransformation [6] | Bacterial Biotransformation [7] | Bacterial Biotransformation [8] | Bacterial Biotransformation [9] | Bacterial Biotransformation [10] | Bacterial Biotransformation [11] | Bacterial Biotransformation [12] | Bacterial Biotransformation [13] | Bacterial Biotransformation [14] | Bacterial Biotransformation [15] | Bacterial Biotransformation [16] | Bacterial Biotransformation [17] | Bacterial Biotransformation [18] | Bacterial Biotransformation [19] | Bacterial Biotransformation [20] |
| --- | --- | --- | --- | --- | --- | --- | --- | --- | --- | --- | --- | --- | --- | --- | --- | --- | --- | --- | --- | --- |
| Cc1ccc(-c2cc(C(F)(F)F)nn2-c2ccc(S(N)(=O)=O)cc2)cc1 [CELECOXIB] | Compound NOT metabolized | Compound NOT metabolized | Compound NOT metabolized | Compound NOT metabolized | Compound NOT metabolized | Compound NOT metabolized | Compound NOT metabolized | Compound NOT metabolized | Compound NOT metabolized | Compound metabolized | Compound NOT metabolized | Compound metabolized | Compound metabolized | Compound metabolized | Compound metabolized | Compound NOT metabolized | Compound metabolized | Compound NOT metabolized | Compound NOT metabolized | Compound NOT metabolized |
| Clc1ccc(Cn2c(CN3CCCC3)nc3ccccc32)cc1 [CLEMIZOLE] | Compound NOT metabolized | Compound metabolized | Compound metabolized | Compound NOT metabolized | Compound NOT metabolized | Compound NOT metabolized | Compound metabolized | Compound metabolized | Compound metabolized | Compound metabolized | Compound metabolized | Compound NOT metabolized | Compound NOT metabolized | Compound NOT metabolized | Compound metabolized | Compound NOT metabolized | Compound NOT metabolized | Compound metabolized | Compound metabolized | Compound metabolized |
| CN1CCN(C2=Nc3cc(Cl)ccc3Nc3ccccc32)CC1 [CLOZAPINE] | Compound NOT metabolized | Compound NOT metabolized | Compound metabolized | Compound NOT metabolized | Compound NOT metabolized | Compound NOT metabolized | Compound NOT metabolized | Compound metabolized | Compound metabolized | Compound NOT metabolized | Compound NOT metabolized | Compound NOT metabolized | Compound metabolized | Compound NOT metabolized | Compound NOT metabolized | Compound NOT metabolized | Compound metabolized | Compound NOT metabolized | Compound metabolized | Compound metabolized |
| COc1cc2c(c(OC)c1OC)-c1ccc(OC)c(=O)cc1[C@@H](NC(C)=O)CC2 [COLCHICINE] | Compound NOT metabolized | Compound NOT metabolized | Compound metabolized | Compound NOT metabolized | Compound NOT metabolized | Compound NOT metabolized | Compound NOT metabolized | Compound NOT metabolized | Compound NOT metabolized | Compound metabolized | Compound NOT metabolized | Compound metabolized | Compound metabolized | Compound metabolized | Compound metabolized | Compound NOT metabolized | Compound metabolized | Compound NOT metabolized | Compound metabolized | Compound NOT metabolized |
| CC(=O)OCC(=O)[C@@]12N=C(C)O[C@@H]1C[C@H]1[C@@H]3CCC4=CC(=O)C=C[C@]4(C)[C@H]3[C@@H](O)C[C@@]12C [DEFLAZACORT] | Compound NOT metabolized | Compound metabolized | Compound metabolized | Compound metabolized | Compound metabolized | Compound metabolized | Compound metabolized | Compound metabolized | Compound metabolized | Compound metabolized | Compound metabolized | Compound metabolized | Compound metabolized | Compound metabolized | Compound metabolized | Compound metabolized | Compound metabolized | Compound metabolized | Compound metabolized | Compound metabolized |
| CN(C)CC(c1ccc(O)cc1)C1(O)CCCCC1.O=C(O)CCC(=O)O (stereo not given) [DESVENLAFAXINE SUCCINATE] | Compound NOT metabolized | Compound NOT metabolized | Compound NOT metabolized | Compound NOT metabolized | Compound NOT metabolized | Compound NOT metabolized | Compound NOT metabolized | Compound NOT metabolized | Compound NOT metabolized | Compound NOT metabolized | Compound NOT metabolized | Compound NOT metabolized | Compound NOT metabolized | Compound NOT metabolized | Compound NOT metabolized | Compound NOT metabolized | Compound NOT metabolized | Compound NOT metabolized | Compound NOT metabolized | Compound NOT metabolized |
| CN1CCN(C(=O)O[C@H]2c3nccnc3C(=O)N2c2ccc(Cl)cn2)CC1 [ESZOPICLONE] | Compound NOT metabolized | Compound NOT metabolized | Compound NOT metabolized | Compound NOT metabolized | Compound NOT metabolized | Compound NOT metabolized | Compound NOT metabolized | Compound NOT metabolized | Compound NOT metabolized | Compound NOT metabolized | Compound NOT metabolized | Compound NOT metabolized | Compound NOT metabolized | Compound NOT metabolized | Compound NOT metabolized | Compound NOT metabolized | Compound NOT metabolized | Compound NOT metabolized | Compound NOT metabolized | Compound NOT metabolized |
| O=C1[C@H](CC[C@H](O)c2ccc(F)cc2)[C@@H](c2ccc(O)cc2)N1c1ccc(F)cc1 [EZETIMIBE] | Compound NOT metabolized | Compound NOT metabolized | Compound metabolized | Compound NOT metabolized | Compound NOT metabolized | Compound NOT metabolized | Compound NOT metabolized | Compound NOT metabolized | Compound metabolized | Compound metabolized | Compound metabolized | Compound NOT metabolized | Compound NOT metabolized | Compound NOT metabolized | Compound NOT metabolized | Compound NOT metabolized | Compound NOT metabolized | Compound NOT metabolized | Compound NOT metabolized | Compound metabolized |
